Key:
[1] = test system: Xanthomonas campestris pv. campestris; assay: Xanthomonas campestris pv. campestris in vitro cell test (bacteria growth in liquid culture); format: cell-based; settings: 20 ppm of tested compound; 24 h of incubation
Description: Example A: Xanthomonas Campestris pv. Campestris In Vitro Cell Test
Culture medium: LB broth medium (Luria Broth Miller) Sigma
Inoculum: bacteria suspension
Compounds to be tested were solubilized in DMSO and the solution used to prepare the required range of concentrations. The final concentration of DMSO used in the assay was ≤1%.
Inoculum was prepared from a pre-culture of bacteria grown in liquid medium and diluted to the desired optical density (OD).
Compounds were evaluated for their ability to inhibit bacteria growth in liquid culture assay. The compounds were added in the desired concentrations to culture medium containing the bacteria suspension. After 24 h of incubation, the efficacy of compounds was determined by spectrometric measurement of bacteria growth. Inhibition was determined by comparing the absorbance values in wells containing the compounds with the absorbance in control wells without compounds.

[2] = Log P by HPLC on reversed phase columns (EEC directive 79/831 Annex V.A8); format: physicochemical; settings: for chromatographic logP: reversed phase HPLC columns
Description: In the above tables, measurement of Log P values was performed according to EEC directive 79/831 Annex V.A8 by HPLC (High Performance Liquid Chromatography) on reversed phase columns with the following methods: • ^[a]
If more than one Log P value is available within the same method, all the values are given and separated by “+”.
Calibration was done with straight-chain alkan2-ones (with 3 to 16 carbon atoms) with known Log P values (measurement of Log P values using retention times with linear interpolation between successive alkanones). Lambda-max-values were determined using UV-spectra from 200 nm to 400 nm and the peak values of the chromatographic signals.

[3] = method [a]: LC-UV, acidic range, 0.1% formic acid in water and acetonitrile as eluent
[4] = value given in preparation example, method variant not stated

| SMILES | LogP [2, 3] | also measured |
| --- | --- | --- |
| CCOC(=O)[C@H](Cc1ccccc1)NC(=O)c1sc(Cl)c(Cl)c1C [I.26] | 4.46^[a] | direct activity (inhibition of bacteria growth) [1]: no direct activity |
| CCOC(=O)CNC(=O)c1sc(Br)c(Br)c1I [VIa.10] | 3.35^[a] |  |
| Cc1c(C(=O)NCC(=O)OC(C)C)sc(Br)c1Br [I.78] | 3.40^[a] |  |
| CCOC(=O)[C@@H](NC(=O)c1sc(Br)c(Br)c1C)C(C)C [I.08] | 4.32^[a] | direct activity (inhibition of bacteria growth) [1]: no direct activity |
| CSCCC(NC(=O)c1sc(Br)c(Br)c1C)C(=O)O (centres unmarked) [I.87] | 2.89^[a] |  |
| CCOC(=O)[C@H](CCSC)NC(=O)c1sc(Cl)c(Cl)c1C [I.24] | 3.94^[a] | direct activity (inhibition of bacteria growth) [1]: no direct activity |
| CCOC(=O)C(CC(C)C)NC(=O)c1sc(Br)c(Br)c1C (centres unmarked) [I.69] | 4.66^[a] |  |
| CCOC(=O)C(CCSC)NC(=O)c1sc(Br)c(Br)c1I (centres unmarked) [VIa.16] | 4.37^[a] |  |
| Cc1c(C(=O)NCC(=O)O)sc(Br)c1Br [I.10] | 2.05^[a] | direct activity (inhibition of bacteria growth) [1]: no direct activity |
| COC(=O)CNC(=O)c1sc(Br)c(Br)c1C [I.09] |  | direct activity (inhibition of bacteria growth) [1]: no direct activity |
| CCOC(=O)C(CCSC)NC(=O)c1sc(Cl)c(Cl)c1I (centres unmarked) [VIa.23] | 4.40^[a] |  |
| CCOC(=O)C(NC(=O)c1sc(Br)c(Br)c1C)C(C)C (centres unmarked) [I.62] | 4.37^[a] |  |
| COC(=O)c1sc(Cl)c(Cl)c1Br [VIIIa.02, methyl 3-bromo-4,5-dichlorothiophene-2-carboxylate] |  | chromatographic logP [2, 3]: 4.11; chromatographic logP [2, 4]: 3.99 |
| Cc1c(C(=O)NC(C)C(=O)O)sc(Cl)c1Cl (centres unmarked) [I.81] | 2.28^[a] |  |
| CCOC(=O)C(Cc1ccccc1)NC(=O)c1sc(Cl)c(Cl)c1I (centres unmarked) [VIa.24] | 5.00^[a] |  |
| CC[C@H](C)[C@H](NC(=O)c1sc(Cl)c(Cl)c1C)C(=O)O [I.83] | 3.31^[a] |  |
| CC[C@H](C)[C@H](NC(=O)c1sc(Cl)c(Cl)c1C)C(=O)OC [I.32] |  | direct activity (inhibition of bacteria growth) [1]: no direct activity |
| CCOC(=O)C(CC(C)C)NC(=O)c1sc(Br)c(Br)c1C (centres unmarked) [I.68] | 4.66^[a] |  |
| CCOC(=O)CNC(=O)c1sc(Br)cc1C [IXa.02] | 2.39^[a] |  |
| CCOC(=O)C(CCSC)NC(=O)c1sc(Cl)c(Cl)c1Br (centres unmarked) [VIa.19] | 4.46^[a] |  |
| Cc1c(C(=O)NCC(=O)O)sc(Cl)c1Cl [I.80] | 2.05^[a] |  |
| CCOC(=O)c1sc(NC(=O)OC(C)(C)C)c(Br)c1C [XIIIa.01] | 4.62^[a] |  |

| SMILES | LogP [2, 3] | also measured |
| --- | --- | --- |
| Cc1c(C(=O)NC(Cc2ccccc2)C(=O)O)sc(Br)c1Br (centres unmarked) [I.88] | 3.30^[a] |  |
| COC(=O)C(CCSC)NC(=O)c1sc(Br)c(Br)c1C (centres unmarked) [I.70] | 3.69^[a] |  |
| Cc1c(C(=O)NC(CC(C)C)C(=O)O)sc(Cl)c1Cl (centres unmarked) [I.84] | 3.31^[a] |  |
| CCOC(=O)C(NC(=O)c1sc(Cl)c(Cl)c1C)c1ccccc1 (centres unmarked) [I.75] | 4.37^[a] |  |
| CCOC(=O)C(Cc1ccccc1)NC(=O)c1sc(Br)c(Br)c1C (centres unmarked) [I.65] | 4.59^[a] |  |
| COC(=O)C1(NC(=O)c2sc(Cl)c(Cl)c2C)CC1 [I.50] |  | direct activity (inhibition of bacteria growth) [1]: no direct activity |
| CCOC(=O)C(NC(=O)c1sc(Cl)c(Cl)c1C)C(C)C (centres unmarked) [I.44] |  | direct activity (inhibition of bacteria growth) [1]: no direct activity |
| CCOC(=O)[C@@H](NC(=O)c1sc(Cl)c(Cl)c1C)C(C)C [I.25] |  | direct activity (inhibition of bacteria growth) [1]: no direct activity |
| CCOC(=O)C1(NC(=O)c2sc(Cl)c(Cl)c2I)CC1 [VIa.05] | 3.39^[a] |  |
| Cc1c(C(=O)NC(C(=O)OCC2CC2)C(C)C)sc(Br)c1Br (centres unmarked) [I.52] |  | direct activity (inhibition of bacteria growth) [1]: no direct activity |
| CCOC(=O)CNC(=O)c1sc(Cl)c(Cl)c1I [VIa.12] | 3.31^[a] |  |
| Cc1c(C(=O)NC(Cc2ccccc2)C(=O)O)sc(Cl)c1Cl (centres unmarked) [I.86] | 3.31^[a] |  |
| CCOC(=O)CNC(=O)c1sc(Cl)c(Cl)c1Br [VIa.01, ethyl N-[(3-bromo-4,5-dichloro-2-thienyl)carbonyl]glycinate] |  | chromatographic logP [2, 3]: 3.33; chromatographic logP [2, 4]: 3.33 |
| CCOC(=O)C1(NC(=O)c2sc(NC(=O)OC(C)(C)C)c(Br)c2C)CC1 [XIa.01, ethyl 1-[({4-bromo-5-[(tert-butoxycarbonyl)amino]-3-methyl-2-thienyl}carbonyl)amino]cyclopropanecarboxylate] |  | chromatographic logP ([2]; method [b]: LC-UV, neutral range, 0.001 molar ammonium acetate solution in water and acetonitrile as eluent): 3.44; chromatographic logP [2, 4]: 3.28 |
| Cc1c(C(=O)O)sc(NC(=O)OC(C)(C)C)c1Br [XIIIa.02, 4-bromo-5-[(tert-butoxycarbonyl)amino]-3-methylthiophene-2-carboxylic acid] |  | chromatographic logP [2, 3]: 2.86 |
| Cc1c(C(=O)NC(C(=O)OC2COC2)C(C)C)sc(Br)c1Br (centres unmarked) [I.16] | 3.58^[a] |  |
| COC(=O)C(NC(=O)c1sc(Br)c(Br)c1C)C(C)C (centres unmarked) [I.63] | 3.91^[a] |  |
| CC[C@H](C)[C@H](NC(=O)c1sc(Br)c(Br)c1C)C(=O)OC [I.22] |  | direct activity (inhibition of bacteria growth) [1]: no direct activity |
| CCOC(=O)C(Cc1ccccc1)NC(=O)c1sc(Cl)c(Cl)c1Br (centres unmarked) [VIa.20] | 5.01^[a] |  |
| CCOC(=O)C(Cc1ccccc1)NC(=O)c1sc(Br)c(Br)c1I (centres unmarked) [VIa.14] | 4.93^[a] |  |
| CCOC(=O)C(NC(=O)c1sc(Cl)c(Cl)c1Br)C(C)C (centres unmarked) [VIa.17] | 4.88^[a] |  |
| CCOC(=O)C(NC(=O)c1sc(Br)c(Br)c1C)c1ccccc1 (centres unmarked) [I.76] | 4.44^[a] |  |

| SMILES | LogP [2, 3] | also measured |
| --- | --- | --- |
| CCOC(=O)C(NC(=O)c1sc(Br)cc1C)C(C)C (centres unmarked) [IXa.03] | 3.65^[a] |  |
| CSCCC(NC(=O)c1sc(Cl)c(Cl)c1C)C(=O)O (centres unmarked) [I.85] | 2.80^[a] |  |
| Cc1c(C(=O)NC(C(=O)O)C(C)C)sc(Cl)c1Cl (centres unmarked) [I.82] | 2.96^[a] |  |
| CC/C=C\CCOC(=O)C(NC(=O)c1sc(Br)c(Br)c1C)C(C)C (centres unmarked) [I.12] |  | direct activity (inhibition of bacteria growth) [1]: no direct activity |
| CCOC(=O)C1(NC(=O)c2scc(Br)c2C)CC1 [IXb.01] | 2.49^[a] |  |
| CCOC(=O)C1(NC(=O)c2scc(Br)c2C)CC1 [IXa.01, ethyl 1-{[(4-bromo-3-methyl-2-thienyl)carbonyl]amino}cyclopropanecarboxylate] |  | chromatographic logP [2, 3]: 2.57 |
| CCOC(=O)C(Cc1ccccc1)NC(=O)c1sc(Br)cc1C (centres unmarked) [IXa.04] | 3.90^[a] |  |
| CCOC(=O)C(NC(=O)c1sc(Cl)c(Cl)c1C)C(C)C (centres unmarked) [I.40] |  | direct activity (inhibition of bacteria growth) [1]: no direct activity |
| CCOC(=O)C(CC(C)C)NC(=O)c1sc(Br)c(Br)c1I (centres unmarked) [VIa.15] | 5.01^[a] |  |
| O=C(O)c1sc(Cl)c(Cl)c1Br [VIIIa.03, 3-bromo-4,5-dichlorothiophene-2-carboxylic acid] |  | chromatographic logP [2, 3]: 2.52; chromatographic logP [2, 4]: 2.51 |
| CC[C@H](C)[C@H](NC(=O)c1sc(Br)c(Br)c1C)C(=O)O [I.89] | 3.37^[a] |  |
| COC(=O)CNC(=O)c1sc(Cl)c(Cl)c1I [VIa.02] | 2.90^[a] |  |
| CCOC(=O)C1(NC(=O)c2sc(N)c(Br)c2C)CC1 [Xa.01, ethyl 1-{[(5-amino-4-bromo-3-methyl-2-thienyl)carbonyl]amino}cyclopropanecarboxylate] |  | chromatographic logP [2, 3]: 1.97; chromatographic logP [2, 4]: 1.92 |
| COC(=O)C(NC(=O)c1sc(Cl)c(Cl)c1C)C(C)C (centres unmarked) [I.91] | 4.34^[a] |  |
| O=C(O)CNC(=O)c1sc(Cl)c(Cl)c1I [VIa.13] | 2.21^[a] |  |
| CCOC(=O)C(CC(C)C)NC(=O)c1sc(Cl)c(Cl)c1I (centres unmarked) [VIa.22] | 5.08^[a] |  |
| CCOC(=O)C(NC(=O)c1sc(Cl)c(Cl)c1I)C(C)C (centres unmarked) [VIa.21] | 4.85^[a] |  |
| COC(=O)c1sc(Cl)c(Cl)c1N [methyl 3-amino-4,5-dichlorothiophene-2-carboxylate] |  | chromatographic logP [2, 4]: 3.11 |
| Cc1c(C(=O)NC2(C(=O)O)CC2)sc(Br)c1Br [I.06] |  | direct activity (inhibition of bacteria growth) [1]: no direct activity |
| COC(=O)CNC(=O)c1sc(Br)c(Br)c1I [VIa.03] | 2.96^[a] |  |
| CCOC(=O)C(CC(C)C)NC(=O)c1sc(Cl)c(Cl)c1Br (centres unmarked) [VIa.18] | 5.17^[a] |  |

From patent publication US11401254B2, “Substituted thiophenecarboxamides and analogues as antibacterials agents” (Bayer Aktiengesellschaft, priority 2018, dated 2022)
